System: secretion of acidic gastric juice stimulated with histamine
Test: Inhibition of histamine-stimulated secretion of acidic gastric juice in dogs with a Heidenhain pouch, single intravenous injection
Format: in vivo, dog
Details: column fractions or products assayed in histamine-stimulated pouch dogs
Description: This test is used to determine the biological potency of the products, which is defined as the amount of the product expressed in μg./kg. which, on administration by intravenous injection to a dog provided with a Heidenhain pouch and whose secretion of gastric acid is stimulated to 60-89% of the maximum level of secretion by an infusion of histamine, causes a 50-70% inhibition of that acid secretion. Some variation in the biological potency of a particular sample is found if it is measured in different dogs and on different occasions, and so the result is best expressed as a dose range. The physiological effect of inhibiting the secretion of acidic gastric juice is of value in the treatment of duodenal ulcers, and under the test conditions, no serious toxic effects were observed. The polypeptides also show ulcer healing properties in a standard test. […]
Dogs were prepared with separated denervated fundic pouches, and a subcutaneous infusion of histamine was used to stimulate gastric secretion to approximately 60-80% of the maximal rate [usually an infusion of a solution of 600 μg. of histamine (expressed as base) in 0.48 ml. per hour was adequate]. […]
The specific activity may be determined from the results obtained for several different doses.

| Substance | biological activity (inhibition of gastric secretion), in words |
| --- | --- |
| material in fractions 38-52: hexapeptide liberated from β-urogastrone: Glu 1, Leu 1, Lys 1, Trp 2, Arg 1, lysine at the N-terminus (KWWELR; Epidermal growth factor; UniProt P01133 1018-1023, looked up, fragment) | biologically inactive |
| material in fractions 49-65: pentapeptide liberated from γ-urogastrone: Glu 1, Leu 1, Lys 1, Trp 2, lysine at the N-terminus (KWWEL; Epidermal growth factor; UniProt P01133 1018-1022, looked up, fragment) | biologically inactive |

— patent US4032633A, “Polypeptides” (Imperial Chemical Industries Limited, priority 1974, dated 1977)
